Experimental data published in patent publication US6355799B1, “Substituted benzene compounds, process for their preparation, and herbicidal and defoliant compositions containing them” (ISK Americas Incorporated, priority 1997, dated 2002).

Key:
Assay type in all cases: in vivo
[1] = tested on: redroot pigweed (Amaranthus retroflexus, AMARE); assay: Pre-emerge test, greenhouse herbicide activity screening
How it was run: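 Plants grown in 10 cm pots of sandy loam mix received acetone-dissolved compounds through a moving flat-fan nozzle. Doses ranged from 15 to 1000 g ai/ha. Pre-emerge pots were seeded one day earlier, post-emerge pots 8–21 days earlier. Fourteen days on, each pot was graded 0–100 for damage.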

[2] = tested on: barnyardgrass (Echinochloa crus-galli, ECHCG); assay: as above
How it was run: (§1)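 Herbicidal damage is scored 0 (none) to 100 (complete plant death) two weeks after a simulated field spray. Rates span 15–1000 g ai/ha, delivered in acetone at 187 l/ha. For post-emergence treatments, plants have 2–3 leaves and the spray carries 0.25% v/v non-ionic surfactant.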

[3] = tested on: green foxtail (Setaria viridis, SETVI); assay: as above
How it was run: as §1

[4] = tested on: ivyleaf morningglory (Ipomoea hederacea, IPOHE); assay: as above
How it was run: as §1

[5] = tested on: johnsongrass (Sorghum halepense, SORHA); assay: as above
How it was run: as §1

[6] = tested on: lambsquarters (Chenopodium album, CHEAL); assay: as above
How it was run: as §1

[7] = tested on: large crabgrass (Digitaria sanguinalis, DIGSA); assay: as above
How it was run: as §1

[8] = tested on: sicklepod (Cassia obtusifolia, CASOB); assay: as above
How it was run: as §1

[9] = tested on: velvetleaf (Abutilon theophrasti, ABUTH); assay: as above
How it was run: as §1

[10] = tested on: field corn (Zea mays L., var. Dekalb 535, CORN); assay: Pre-emerge test, crop safety
How it was run: (§2)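 Fourteen days after spraying, crop and weed injury was graded visually from 0, no effect, to 100, every plant dead. Test substances were dissolved in acetone and applied at 15–1000 g ai/ha with a flat-fan nozzle. Application was either pre-emergence, one day after sowing, or post-emergence at the 2–3 leaf stage.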

[11] = tested on: upland rice (Oryza sp., var. Tebonnet, RICE); assay: Pre-emerge test, crop safety
How it was run: as §2

[12] = tested on: barnyardgrass (Echinochloa crus-galli, ECHCG); assay: Post-emerge test, greenhouse herbicide activity screening; settings: post-emerge, 14 days after application, rating scale 0-100
How it was run: (§3)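 Rating: 0–100 visual injury, 14 DAA. Application: acetone, 187 l/ha, 15–1000 g ai/ha, flat-fan track sprayer with nozzle 40–45 cm above soil or canopy. Post-emerge runs used 0.25% v/v surfactant on 2–3 leaf plants.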

[13] = tested on: green foxtail (Setaria viridis, SETVI); assay: as above; settings: post-emerge, 14 days after application, rating scale 0-100
How it was run: as §3

[14] = tested on: ivyleaf morningglory (Ipomoea hederacea, IPOHE); assay: as above; settings: post-emerge, 14 days after application, rating scale 0-100
How it was run: as §3

[15] = tested on: johnsongrass (Sorghum halepense, SORHA); assay: as above; settings: post-emerge, 14 days after application, rating scale 0-100
How it was run: as §3

[16] = tested on: lambsquarters (Chenopodium album, CHEAL); assay: as above; settings: post-emerge, 14 days after application, rating scale 0-100
How it was run: as §3

[17] = tested on: large crabgrass (Digitaria sanguinalis, DIGSA); assay: as above; settings: post-emerge, 14 days after application, rating scale 0-100
How it was run: as §3

[18] = tested on: redroot pigweed (Amaranthus retroflexus, AMARE); assay: as above; settings: post-emerge, 14 days after application
How it was run: as §3

[19] = tested on: sicklepod (Cassia obtusifolia, CASOB); assay: as above; settings: post-emerge, 14 days after application, rating scale 0-100
How it was run: as §3

[20] = tested on: velvetleaf (Abutilon theophrasti, ABUTH); assay: as above; settings: post-emerge, 14 days after application, rating scale 0-100
How it was run: as §3

[21] = tested on: field corn (Zea mays L., var. Dekalb 535, CORN); assay: Post-emerge test, crop safety; settings: post-emerge, 14 days after application, rating scale 0-100
How it was run: as §1

[22] = tested on: upland rice (Oryza sp., var. Tebonnet, RICE); assay: Post-emerge test, crop safety; settings: post-emerge, 14 days after application, rating scale 0-100
How it was run: as §1

[23] = pre-emerge, rate 63 g ai/ha, phytotoxicity rating 0-100 at 14 days after application
[24] = pre-emerge, rate 250 g ai/ha, phytotoxicity rating 0-100 at 14 days after application
[25] = crop damage, pre-emerge, rate 63 g ai/ha, phytotoxicity rating 0-100 at 14 days after application
[26] = crop damage, pre-emerge, rate 250 g ai/ha, phytotoxicity rating 0-100 at 14 days after application
[27] = 63 g ai/ha, rating scale 0-100 (0 no damage, 100 complete death)
[28] = 250 g ai/ha, rating scale 0-100
[29] = 63 g ai/ha, phytotoxicity rating 0-100, 14 days after application
[30] = 250 g ai/ha, phytotoxicity rating 0-100, 14 days after application
[31] = 63 g ai/ha, crop damage rating 0-100, 14 days after application
[32] = 250 g ai/ha, crop damage rating 0-100, 14 days after application

Cc1ccccc1COC(=O)Nc1c(C)c(Cl)cc(F)c1-n1c(=O)cc(C(F)(F)F)n(C)c1=O [4-56]
85: phytotoxicity rating RICE (crop damage) ([22]; 250 g ai/ha)
50: Pre-emerge Herbicidal Activity ECHCG [2, 23] | Pre-emerge Herbicidal Activity SORHA [5, 23] | Pre-emerge Herbicidal Activity DIGSA [7, 23] | Pre-emerge Herbicidal Activity RICE [11, 25] | phytotoxicity rating ECHCG ([12]; 63 g ai/ha)
90: Pre-emerge Herbicidal Activity SETVI [3, 23] | Pre-emerge Herbicidal Activity SORHA [5, 24] | Pre-emerge Herbicidal Activity RICE [11, 26] | phytotoxicity rating ECHCG ([12]; 250 g ai/ha) | phytotoxicity rating SETVI ([13]; 63 g ai/ha) | phytotoxicity rating SORHA ([15]; 250 g ai/ha)
100: Pre-emerge Herbicidal Activity AMARE [1, 23] | Pre-emerge Herbicidal Activity AMARE [1, 24] | Pre-emerge Herbicidal Activity IPOHE [4, 24] | Pre-emerge Herbicidal Activity CHEAL [6, 23] | Pre-emerge Herbicidal Activity CHEAL [6, 24] | Pre-emerge Herbicidal Activity CASOB [8, 24] | Pre-emerge Herbicidal Activity ABUTH [9, 23] | Pre-emerge Herbicidal Activity ABUTH [9, 24] | phytotoxicity rating SETVI ([13]; 250 g ai/ha) | phytotoxicity rating IPOHE ([14]; 63 g ai/ha) | phytotoxicity rating IPOHE ([14]; 250 g ai/ha) | phytotoxicity rating CHEAL ([16]; 63 g ai/ha) | phytotoxicity rating CHEAL ([16]; 250 g ai/ha) | phytotoxicity rating AMARE [18, 27] | phytotoxicity rating AMARE [18, 28] | phytotoxicity rating CASOB ([19]; 63 g ai/ha) | phytotoxicity rating CASOB ([19]; 250 g ai/ha) | phytotoxicity rating ABUTH ([20]; 63 g ai/ha) | phytotoxicity rating ABUTH ([20]; 250 g ai/ha) | phytotoxicity rating CORN (crop damage) ([21]; 250 g ai/ha)
20: phytotoxicity rating DIGSA ([17]; 63 g ai/ha)
65: phytotoxicity rating RICE (crop damage) ([22]; 63 g ai/ha)
40: Pre-emerge Herbicidal Activity IPOHE [4, 23] | phytotoxicity rating SORHA ([15]; 63 g ai/ha)
80: Pre-emerge Herbicidal Activity ECHCG [2, 24] | Pre-emerge Herbicidal Activity CORN [10, 26] | phytotoxicity rating CORN (crop damage) ([21]; 63 g ai/ha)
95: Pre-emerge Herbicidal Activity SETVI [3, 24] | Pre-emerge Herbicidal Activity DIGSA [7, 24]
10: Pre-emerge Herbicidal Activity CASOB [8, 23]
70: phytotoxicity rating DIGSA ([17]; 250 g ai/ha)
35: Pre-emerge Herbicidal Activity CORN [10, 25]

Cn1c(C(F)(F)F)cc(=O)n(-c2c(F)cc(Cl)c(Oc3ncccc3[N+](=O)[O-])c2NC(=O)c2ccc3ccccc3c2)c1=O [2-199]
99: Pre-emerge Herbicidal Activity ECHCG [2, 29] | Pre-emerge Herbicidal Activity RICE [11, 31]
80: phytotoxicity rating RICE (crop damage) ([22]; 63 g ai/ha)
40: phytotoxicity rating SORHA ([15]; 63 g ai/ha)
95: Pre-emerge Herbicidal Activity CORN [10, 31] | phytotoxicity rating SORHA ([15]; 250 g ai/ha) | phytotoxicity rating DIGSA ([17]; 250 g ai/ha) | phytotoxicity rating AMARE [18, 27]
90: phytotoxicity rating SETVI ([13]; 250 g ai/ha) | phytotoxicity rating CORN (crop damage) ([21]; 250 g ai/ha) | phytotoxicity rating RICE (crop damage) ([22]; 250 g ai/ha)
50: phytotoxicity rating SETVI ([13]; 63 g ai/ha)
100: Pre-emerge Herbicidal Activity AMARE [1, 29] | Pre-emerge Herbicidal Activity AMARE [1, 30] | Pre-emerge Herbicidal Activity ECHCG [2, 30] | Pre-emerge Herbicidal Activity SETVI [3, 29] | Pre-emerge Herbicidal Activity SETVI [3, 30] | Pre-emerge Herbicidal Activity IPOHE [4, 29] | Pre-emerge Herbicidal Activity IPOHE [4, 30] | Pre-emerge Herbicidal Activity SORHA [5, 29] | Pre-emerge Herbicidal Activity SORHA [5, 30] | Pre-emerge Herbicidal Activity CHEAL [6, 29] | Pre-emerge Herbicidal Activity CHEAL [6, 30] | Pre-emerge Herbicidal Activity DIGSA [7, 29] | Pre-emerge Herbicidal Activity DIGSA [7, 30] | Pre-emerge Herbicidal Activity CASOB [8, 29] | Pre-emerge Herbicidal Activity CASOB [8, 30] | Pre-emerge Herbicidal Activity ABUTH [9, 29] | Pre-emerge Herbicidal Activity ABUTH [9, 30] | Pre-emerge Herbicidal Activity CORN [10, 32] | Pre-emerge Herbicidal Activity RICE [11, 32] | phytotoxicity rating ECHCG ([12]; 250 g ai/ha) | phytotoxicity rating IPOHE ([14]; 63 g ai/ha) | phytotoxicity rating IPOHE ([14]; 250 g ai/ha) | phytotoxicity rating CHEAL ([16]; 63 g ai/ha) | phytotoxicity rating CHEAL ([16]; 250 g ai/ha) | phytotoxicity rating AMARE [18, 28] | phytotoxicity rating CASOB ([19]; 63 g ai/ha) | phytotoxicity rating CASOB ([19]; 250 g ai/ha) | phytotoxicity rating ABUTH ([20]; 63 g ai/ha) | phytotoxicity rating ABUTH ([20]; 250 g ai/ha)
60: phytotoxicity rating ECHCG ([12]; 63 g ai/ha)
30: phytotoxicity rating DIGSA ([17]; 63 g ai/ha) | phytotoxicity rating CORN (crop damage) ([21]; 63 g ai/ha)
